Columns and labels:
Type in all cases: toxicity, cell-based
HEK-293T = assay: Incucyte cell viability with HEK293T; conditions: human, 10 µM, compound concentration 10 uM
Fibroblast = assay: Incucyte cell viability with human fibroblast; conditions: 10 µM, compound concentration 10 uM
U2OS = assay: Incucyte cell viability with U2OS; conditions: human, 10 µM, compound concentration 10 uM
Further: unitless GR value; below 1 slowed growth and below 0 cell loss.

SMILES | Growth Rate (HEK-293T; 0 h, replicate number 1) | Growth Rate (HEK-293T; 6 h, replicate number 1) | Growth Rate (HEK-293T; 12 h, replicate number 1) | Growth Rate (HEK-293T; 12 h, replicate number 2) | Growth Rate (HEK-293T; 18 h, replicate number 1) | Growth Rate (HEK-293T; 18 h, replicate number 2) | Growth Rate (HEK-293T; 24 h, replicate number 1) | Growth Rate (HEK-293T; 24 h, replicate number 2) | Growth Rate (Fibroblast; 0 h, replicate number 2) | Growth Rate (Fibroblast; 6 h, replicate number 1) | Growth Rate (Fibroblast; 12 h, replicate number 1) | Growth Rate (Fibroblast; 12 h, replicate number 2) | Growth Rate (Fibroblast; 18 h, replicate number 1) | Growth Rate (Fibroblast; 18 h, replicate number 2) | Growth Rate (Fibroblast; 24 h, replicate number 1) | Growth Rate (U2OS; 6 h, replicate number 1) | Growth Rate (U2OS; 12 h, replicate number 1) | Growth Rate (U2OS; 12 h, replicate number 2) | Growth Rate (U2OS; 24 h, replicate number 1) | Growth Rate (U2OS; 24 h, replicate number 2) | further results
C[C@@]1(Cc2ccc(C#N)cc2)C(=O)N(c2cc(Cl)cc(Cl)c2)c2ncc(C(=O)NC3(c4nc(C5CCC5)no4)CC3)n21 [BI 9446] | 0.53 | 0.51 | 0.15 | 0.74 | 0.2 | 0.52 | 0.21 | 0.48 | -0.17 | 0.23 | 0.61 | 0.12 | 0.41 | 0.52 | 0.4 | 0.76 | 0.77 | 0.61 | 0.67 | 0.94 | Growth Rate (Fibroblast; 0 h, replicate number 1): -1; Growth Rate (Fibroblast; 6 h, replicate number 2): -0.58; Growth Rate (Fibroblast; 24 h, replicate number 2): 0.41; Growth Rate (U2OS; 0 h, replicate number 2): 0.34; Growth Rate (U2OS; 6 h, replicate number 2): 1; Growth Rate (U2OS; 18 h, replicate number 1): 0.83; Growth Rate (U2OS; 18 h, replicate number 2): 0.75
CC(=O)N1CCC(c2ccc(C(=O)NC(=N)N)cc2C(F)(F)F)CC1 [BI 9627] | 0.72 | – | – | 0.65 | – | 0.77 | – | 0.92 | – | – | – | 0.57 | – | 0.95 | 0.8 | 0.3 | 0.75 | 0.96 | 1 | 0.92 | Growth Rate (HEK-293T; 6 h, replicate number 2): 0.69; Growth Rate (Fibroblast; 24 h, replicate number 2): 0.76; Growth Rate (U2OS; 0 h, replicate number 1): 0.01; Growth Rate (U2OS; 0 h, replicate number 2): 0.44; Growth Rate (U2OS; 18 h, replicate number 1): 0.9
CCC(=O)N[C@H]1CC[C@@H](C(=O)N(C)c2ccc(-c3nc4ccccc4o3)cc2)C1 [BI 99179] | – | 0.1 | 0.1 | 0.26 | 0.31 | 0.51 | 0.51 | 0.69 | -0.49 | 0.53 | 0.5 | – | 0.66 | 0.98 | 0.79 | 0.68 | 0.89 | 0.65 | 0.86 | 0.96 | Growth Rate (HEK-293T; 6 h, replicate number 2): 0.11; Growth Rate (Fibroblast; 6 h, replicate number 2): 0.58; Growth Rate (U2OS; 0 h, replicate number 1): 0.2; Growth Rate (U2OS; 18 h, replicate number 1): 0.98; Growth Rate (U2OS; 18 h, replicate number 2): 0.87
CCC(=O)N[C@@H]1CC[C@H](C(=O)N(C)c2ccc(-c3nc4ccccc4o3)cc2)C1 [BI 99990] | – | -0.34 | 0.47 | 0.49 | 0.8 | 0.66 | 0.82 | 0.8 | – | – | – | – | – | – | 0.79 | 0.62 | 0.58 | 0.64 | 0.96 | – | Growth Rate (HEK-293T; 6 h, replicate number 2): 0.12; Growth Rate (Fibroblast; 24 h, replicate number 2): 0.81; Growth Rate (U2OS; 6 h, replicate number 2): 0.78
CS(=O)(=O)c1cc(C2(NC(=O)c3cncc4c3cnn4-c3ccc(F)cc3)CC2)ccn1 [BI 639667] | – | 0.52 | 0.77 | – | 0.9 | – | 1 | – | -0.75 | – | – | 0.97 | – | – | – | 0.64 | – | 0.76 | – | – | Growth Rate (HEK-293T; 0 h, replicate number 2): -0.17
CN(C)C(=O)Cn1cc(-c2nc([C@@](C)(c3ccc(-c4cnc(N)nc4)cc3)C3CC3)no2)cn1 [BI 665915] | 0.53 | 0.47 | – | – | 0.93 | 0.9 | 0.96 | – | -0.12 | 0.2 | 0.51 | – | 0.71 | 0.97 | 0.6 | 0.55 | 0.68 | 0.87 | 0.95 | 0.88 | Growth Rate (Fibroblast; 0 h, replicate number 1): -1; Growth Rate (U2OS; 0 h, replicate number 2): 0.28; Growth Rate (U2OS; 6 h, replicate number 2): 0.71; Growth Rate (U2OS; 18 h, replicate number 2): 0.99
